# Like-named read-outs stand apart in the source and are kept apart here.
# Columns and labels:
# Aspergillus niger = assay: Mycelial growth inhibition on agar (contact activity); format: cell-based; details: Aspergillus niger, 120 h; for inhibition of growth at 0.003 %: Wirkstoffkonzentration 0,003 %
# Larven von Fichtenböcken = assay: Insecticidal activity, topical application to larvae; format: in vivo, Fichtenböcke; details: 10%ige Lösung
# From the text: Die hohe insektizide Aktivität von Kalium-N-(vinyloxyathyl)dithiocarbamat und Zink-bis-(N-vinyloxyathyl- dithiocarbamat) wurde in Versuchen an Larven von Fichtenböcken nachgewiesen. Geprüft wurden die 10%igen wäßrigen (oder alkoholischen) Lösungen, welche auf die Kopfbrust von Larven aufgebracht wurden. In Versuchen standen je 20 Larven zur Verfügung. Die Versuche wurden dreimal wiederholt. Die Mortalität wurde nach 1, 24 und 48 Stunden ermittelt. Die insektizide Aktivität der erfindungsgemäßen Stoffe ist bedeutend höher als die von Chlorophos.
# Die Prüfungen auf insektizide Aktivität werden an Larven von Fichtenböcken durchgeführt. Geprüft werden eine 10%ige wäßrige Lösung von Kalium-N-(vinyloxyäthyl)dithiocarbamat und eine 10%ige alkoholische Lösung von Zink-bis-N-(vinyloxyathyldithiocarbamat). In jedem Versuch stehen je 20 Larven zur Verfügung. Die Mortalität wird nach 1, 24 und 48 Stunden ermittelt. Die zu prüfenden Lösungen werden auf die Kopfbrust von Larven aufgebracht.
# Acremonium cowum = assay: Mycelial growth inhibition on agar (contact activity); format: cell-based; details: 120 h, Würzeagar, read-out: Myzelhemmung in %
smiles,measurement,setting,value
C=COCCNC(=S)S [Kalium-N-(vinyloxyäthyl)dithiocarbamat],inhibition of growth at 0.01 %,"Aspergillus niger; Wirkstoffkonzentration 0,01 %, Kartoffel-Glukose-Nährmedium, read-out: Myzelhemmung in %",100%
same,inhibition of growth at 0.003 %,"Aspergillus niger; Kartoffel-Glukose-Nährmedium, read-out: Myzelhemmung in %",100%
same,inhibition of growth at 0.003 %,"Aspergillus niger; Tabelle 3, read-out: Mycelhemmung, in %",100%
same,Mortalität von Larven der Fichtenböcke,Larven von Fichtenböcken; Wirkungsdauer 1 Stunde,20%
same,Mortalität von Larven der Fichtenböcke,Larven von Fichtenböcken; Wirkungsdauer 24 Stunden,100%
same,Mortalität von Larven der Fichtenböcke,Larven von Fichtenböcken; Wirkungsdauer 48 Stunden,100%
same,inhibition of growth at 0.003 %,"Acremonium cowum; Präparatkonzentration 0,003 %",100%
same,inhibition of growth at 0.006 %,"Acremonium cowum; Präparatkonzentration 0,006 %",100%

# Source: patent EP0252983B1, “SALTS OF N-(VINYLOXIETHYL)DITHIOCARBAMIC ACID, METHOD OF OBTAINING THEREOF AND […] ON THEM” (priority 1985, dated 1987)
